Measured values reported in patent publication US20220324796A1, “ANTIBIOTIC COMPOUNDS” (The General Hospital Corporation, priority 2019, published 2022).

Assays:
[1] = Giant unilamellar vesicles (GUVs) assay, bacterial mimetic
Protocol: Giant unilamellar vesicles (GUVs) assay. GUVs were prepared by slightly modifying the electroformation method described previously. 1,2-dioleoyl-sn-glycero-3-phosphocholine (DOPC), 1,2-dioleoyl-sn-glycero-3-phospho-(1′-rac-glycerol) (DOPG), 1-palmitoyl-2-oleoyl-glycero-3-phosphocholine (POPC), cholesterol (ovine wool) and 1,2-dioleoyl-sn-glycero-3-phosphoethanolamine-N-(lissamine rhodamine B sulfonyl) (18:1 Liss Rhod PE) were purchased from Avanti Polar Lipids (Alabaster, Ala., USA). 4 mM lipid mixtures consisting of DOPC/DOPG/18:1 Liss Rhod PE (7:3:0.005) and POPC/cholesterol/18:1 Liss Rhod PE (7:3:0.005) were dissolved in chloroform respectively. Same procedure was used to prepare both kinds of GUVs. Indium tin oxide (ITO)-coated slides (50×75×1.1 mm, Delta Technologies, Loveland, Colo., USA) were coated with […] of the lipid mixture and dried in a vacuum chamber for 2 h to remove chloroform. An electroformation chamber was made by placing a 2 mm thick Teflon spacer between the two lipid-coated ITO slides. […] After adding 1 μl of compound solution to a well (final compound concentration: 1× MIC), the GUVs were observed and imaged with an optical microscope equipped with fluorescence contrast and a digital camera (63x objectives, Axio Observer. A1 & AxioCam MRm, Zeiss, Germany). […]

[2] = system: HKC-8 human renal proximal cells; assay: Mammalian membrane permeability assay (SYTOX Green); format: cell-based; settings: up to 64 μg/mL
Protocol: Mammalian membrane permeability assay. Human renal proximal tubular epithelial cells (HKC-8) were grown in Dulbecco' s modified Eagle F-12 media mixed 1:1 with Ham's F-12 (DMEM/F-12, Life Technologies, Carlsbad, Calif., USA) supplemented with 10% FBS and 4 mM L-glutamine at 37° C. in 5% CO2. For membrane permeability assays, HKC-8 was cultured in black, clear-bottom, 96-well plates (Corning no. 3904) in 100 μl/well of the growth media to reach ˜70% confluence. After washing the cells twice with PBS, 50 μl of 0.25 μM SYTOX Green was added to each well. After incubating the cells at 37° C. in 5% CO2 for 15 min, the cells were treated with a range of concentrations of bithionol or the cholesterol binding detergent saponin (positive control). Fluorescence was measured at room temperature using a spectrophotometer (SpectraMax M2, Molecular Devices) with excitation and emission wavelengths of 485 nm and 525 nm, respectively. The assay was carried out in biological duplicate.
To visualize HKC-8 cells with compromised membranes, HKC-8 was cultured in 24-well plates (Corning no. 3527) until —70% confluence. After washing the cells twice with PBS, 500 μl of 1 μM SYTOX Green was added to each well. The cells were incubated at 37° C. in 5% CO2 for 15 min and then treated with 32 μg/mL (final concentration) bithionol or saponin for 1 h. […]

[3] = Hepatic and renal toxicity (ALT, BUN) in infected mice; format: in vivo, mouse; settings: 30 mg/kg i.p., every 12 h for 3 days
Protocol: Deep-seated mouse thigh infection model. In vivo efficacy of bithionol alone or in combination with gentamicin against MRSA strain MW2 persisters was evaluated using a previously described neutropenic mouse thigh infection model with modifications. Six-week-old female CD-1 mice (20-25 g, Charles River Laboratories, Wilmington, Mass., USA) were rendered neutropenic by administering 150 mg/kg and 100 mg/kg of cyclophosphamide intraperitoneally (i.p.) at 4 days and 1 day before infection, respectively. On the day of infection, overnight culture of S. aureus MW2 were washed 3 times with sterile saline and diluted to ˜10^4 CFU/mL in saline. 50 μl of the diluted culture was injected to the right thigh of each mouse. Bithionol was dissolved in Kolliphor EL (Sigma-Aldrich, St Louis, Mo., USA)/ethanol 1:1 and then diluted 1:10 in saline to a final concentration of 30 mg/kg. […] The levels of alanine aminotransferase and blood urea nitrogen were analyzed with commercially available kits, following the manufacturer's protocol (Pointe Scientific, Canton, Mich., USA) to evaluate hepatic and renal toxicities. […] Statistical significance among each group in animal studies was analyzed by one-way ANOVA with post-hoc Tukey test using GraphPad Prism 7 (GraphPad Software, La Jolla, Calif., USA).

[4] = system: Gram-negative bacteria including Escherichia coli and Shigella dysenteriae; settings: previously described; cited from earlier work

Oc1c(Cl)cc(Cl)cc1Sc1cc(Cl)cc(Cl)c1O [bithionol, 6,6′-thio-bis-(2,4-dichlorophenol)]
effect on DOPC/DOPG GUVs ([1]; 1 μg/mL): Lipid aggregates formed on the surfaces of the GUVs
effect on DOPC/DOPG GUVs ([1]; 10 μg/mL): the GUVs burst
SYTOX Green membrane permeabilization of HKC-8 cells [2]: did not induce SYTOX Green membrane permeabilization
hepatic or renal toxicity (ALT and BUN) [3]: no signs of hepatic or renal toxicity
MIC [4]: > 100 µg/mL
